# US9498463B2, “Compound obtained from gamboge resin, and medical uses of the same” (priority 2010, dated 2016)
# Where two headings read alike, the source gives them in different places.
# Experiments:
# [1] = tested on: Human histocytic lymphoma cell U937; assay: cells; conditions: for CC50: U-937, read-out: LC50 (50% lethal concentration)
# Text: (§1) In Vitro Anti-Cancer Test
# (§2) The in vitro anti-cancer test was primarily used to detect the effect of a candidate drug on cancer cell proliferation. The working principle involved therein is the ability of viable cells to shift alamarBlue (AbD Serotec, UK) from its originally non-fluorescent oxidized state (non-fluorescent, blue) to a reduced form (fluorescent, red) having fluorescence via metabolic reaction. According to the fluorescent data result generated by the alamarBlue reagent thus obtained, the proliferation of the viable cells and cell activity can be quantified for detection.
# (§3) In the in vitro anti-cancer tests, a candidate drug was tested at 5 different concentrations of 0.01, 0.1, 1, 10, and 100 μg/ml, and six human cancer cell lines and a normal human cell line were used (see Table 5).
# [2] = tested on: Human breast adenocarcinoma cell MCF7; assay: cells; conditions: Homo sapiens; for CC50: MCF7, read-out: LC50 (50% lethal concentration)
# Text: as §1, §2, §3
# [3] = tested on: Human promyelocytic leukemia cell HL-60; assay: cells; conditions: for CC50: HL-60, read-out: LC50 (50% lethal concentration)
# Text: as §1, §2, §3
# [4] = tested on: Human colon adenocarcinoma cell HT-29; assay: cells; conditions: for CC50: HT-29, read-out: LC50 (50% lethal concentration)
# Text: as §1, §2, §3
# [5] = tested on: Human hepatocellular carcinoma cell HepG2; assay: cells; conditions: for CC50: HepG2, read-out: LC50 (50% lethal concentration)
# Text: as §1, §2, §3
# [6] = tested on: Human umbilical venal epithelial cell (HUVEC); assay: cells; conditions: HUVEC; for IC50: Homo sapiens; for LC50 (50% lethal concentration): normal human cell line
# Text: as §1, §2, §3
# [7] = tested on: Human lung carcinoma cell A549; assay: cells; conditions: for CC50: A549, read-out: LC50 (50% lethal concentration)
# Text: as §1, §2, §3
# in vitro = assay: in vitro
# Text: as §1, §2, §3
# [8] = U-937, read-out: IC50 (50% inhibition concentration), U937
# [9] = MCF7, read-out: IC50 (50% inhibition concentration), MCF-7
# [10] = HL-60, read-out: IC50 (50% inhibition concentration), HL-60
# [11] = HT-29, read-out: IC50 (50% inhibition concentration), HT-29
# [12] = HepG2, read-out: IC50 (50% inhibition concentration), HepG2
# [13] = read-out: IC50 (50% inhibition concentration), HUVEC, normal human cell line
# [14] = A549, read-out: IC50 (50% inhibition concentration), A549
# [15] = U-937, read-out: IC50 (50% inhibition concentration)
# [16] = MCF7, read-out: IC50 (50% inhibition concentration)
# [17] = HL-60, read-out: IC50 (50% inhibition concentration)
# [18] = HT-29, read-out: IC50 (50% inhibition concentration)
# [19] = HepG2, read-out: IC50 (50% inhibition concentration)
# [20] = read-out: IC50 (50% inhibition concentration)
# [21] = A549, read-out: IC50 (50% inhibition concentration)
smiles,measurement,setting,value
"CC(C)=CCC[C@@]1(C)Oc2c(c(O)c3c(c2CC=C(C)C)O[C@]24C(=C[C@@H]5CC2C(C)(C)OC4(C/C=C(/C)C(=O)O)C5=O)C3=O)C[C@H]1O (stereo in doubt) [Gh-1631, 2-butenoic acid, 2-methyl-4-[(1R,3aS,5S,10R,11R,14aS)-3a,4,5,7,10,11-hexahydro-8,10-dihydroxy-3,3,11-trimethyl-13-(3-methyl-2-butenyl)-11-(4-methyl-3-pentenyl)-7,15-dioxo-1,5-methano-1H,3H,9H-furo[3.4-g]pyrano[3.2-b]xanthen-1-yl]-,(2Z)-]",IC50,[1]; [8],0.18 µg/mL
same,IC50,[2]; [9],0.14 µg/mL
same,IC50,[3]; [10],0.19 µg/mL
same,IC50,[4]; [11],6.1 µg/mL
same,IC50,[5]; [12],0.85 µg/mL
same,IC50,[6]; [13],0.58 µg/mL
same,IC50,[7]; [14],0.14 µg/mL
"CC(C)=CCC/C(C)=C/Cc1c(O)c(CC=C(C)C)c2c(c1O)C(=O)C1=CC3CC4C(C)(C)O[C@](CC=C(C)C)(C3=O)[C@@]14O2 (stereo in doubt) [Gh-4301, desoxygambogenin]",IC50,[1]; [15],11 µg/mL
same,CC50,[1],> 100 µg/mL
same,CC50,in vitro,1.3 µg/mL
same,IC50,[2]; [16],19 µg/mL
same,CC50,[2],56 µg/mL
same,IC50,[3]; [17],3.5 µg/mL
same,CC50,[3],> 100 µg/mL
same,IC50,[4]; [18],13 µg/mL
same,CC50,[4],42 µg/mL
same,IC50,[5]; [19],12 µg/mL
same,CC50,[5],51 µg/mL
same,IC50,[6]; [20],0.29 µg/mL
same,IC50,[7]; [21],0.51 µg/mL
same,CC50,[7],6.2 µg/mL
"CC(C)=CCC[C@@]1(C)C=Cc2c(O)c3c(c(CC(O)C(C)(C)O)c2O1)O[C@]12C(=C[C@@H]4CC1C(C)(C)OC2(C/C=C(/C)C(=O)O)C4=O)C3=O (stereo partly drawn) [Gh-1036, 2-butenoic acid, 2-methyl-4-[(1R,3aS,5S,11S,14aS)-3a,4,5,7-tetrahydro-8-hydroxy-3,3,11-trimethyl-13-(2,3-dihydroxy-3-methylbutyl)-11-(4-methyl-3-pentenyl)-7,15-dioxo-1,5-methano-1H,3H,11H-furo[3.4-g]pyrano[3.2-b]xanthen-1-yl]-,(2Z)-]",IC50,[1]; [8],0.29 µg/mL
same,IC50,[2]; [9],0.35 µg/mL
same,IC50,[3]; [10],0.45 µg/mL
same,IC50,[4]; [11],1.4 µg/mL
same,IC50,[5]; [12],0.88 µg/mL
same,IC50,[6]; [13],0.46 µg/mL
same,IC50,[7]; [14],0.22 µg/mL
"CC(C)=CCC[C@]1(C)C=Cc2c(O)c3c(c(CC(O)C(C)(C)O)c2O1)O[C@]12C(=C[C@@H]4CC1C(C)(C)OC2(C/C=C(/C)C(=O)O)C4=O)C3=O (stereo partly drawn) [Gh-1052, 2-butenoic acid, 2-methyl-4-[(1R,3aS,5S,11R,14aS)-3a,4,5,7-tetrahydro-8-hydroxy-3,3,11-trimethyl-13-(2,3-dihydroxy-3-methylbutyl)-11-(4-methyl-3-pentenyl)-7,15-dioxo-1,5-methano-1H,3H,11H-furo[3.4-g]pyrano[3.2-b]xanthen-1-yl]-,(2Z)-]",IC50,[1]; [8],0.22 µg/mL
same,IC50,[2]; [9],0.52 µg/mL
same,IC50,[3]; [10],0.23 µg/mL
same,IC50,[4]; [11],1.6 µg/mL
same,IC50,[5]; [12],1.2 µg/mL
same,IC50,[6]; [13],0.47 µg/mL
same,IC50,[7]; [14],0.46 µg/mL
"CC(C)=CCC[C@]1(C)C=Cc2c(O)c3c(c(CC=C(C)C)c2O1)O[C@]12C(=C[C@@H]4CC1C(C)(C)O[C@]2(C/C=C(/CO)C(=O)O)C4=O)C3=O [Gh-1601-A, 30-hydroxygambogic acid]",IC50,[1]; [8],0.09 µg/mL
same,CC50,in vitro,5.4 µg/mL
same,CC50,[3],3 µg/mL
"CC(C)=CCC[C@@]1(C)C=Cc2c(O)c3c(c(CC=C(C)C)c2O1)O[C@]12C(=C[C@@H]4CC1C(C)(C)O[C@]2(C/C=C(/CO)C(=O)O)C4=O)C3=O [Gh-1602, 30-hydroxyepigambogic acid]",CC50,in vitro,0.94 µg/mL
same,CC50,[2],4 µg/mL
same,IC50,[3]; [10],1 µg/mL
same,IC50,[7]; [14],0.4 µg/mL
"CC(C)=CCC[C@]1(C)C=Cc2c(O)c3c(c(CC=C(C)C)c2O1)O[C@]12C(=C[C@@H]4CC1C(C)(C)O[C@]2(C/C=C(\C)C(=O)O)C4=O)C3=O [Gh-1641, isogambogic acid]",IC50,[1]; [15],9.4 µg/mL
same,CC50,[1],36 µg/mL
same,CC50,in vitro,1.3 µg/mL
same,IC50,[2]; [16],1.7 µg/mL
same,CC50,[2],33 µg/mL
same,IC50,[3]; [17],8 µg/mL
same,CC50,[3],32 µg/mL
same,IC50,[4]; [18],1.4 µg/mL
same,CC50,[4],4.4 µg/mL
same,IC50,[5]; [19],0.86 µg/mL
same,CC50,[5],4.5 µg/mL
same,IC50,[6]; [20],0.18 µg/mL
same,IC50,[7]; [21],0.47 µg/mL
same,CC50,[7],3 µg/mL
"CC(C)=CCC[C@@]1(C)C=Cc2c(O)c3c(c(CC=C(C)C)c2O1)O[C@]12C(=C[C@@H]4CC1C(C)(C)O[C@]2(C/C=C(\C)C(=O)O)C4=O)C3=O [Gh-1642, epiisogambogic acid]",IC50,[1]; [15],8.8 µg/mL
same,CC50,[1],33 µg/mL
same,CC50,in vitro,1.3 µg/mL
same,IC50,[2]; [16],2.4 µg/mL
same,CC50,[2],29 µg/mL
same,IC50,[3]; [17],6 µg/mL
same,CC50,[3],35 µg/mL
same,IC50,[4]; [18],1.9 µg/mL
same,CC50,[4],4.8 µg/mL
same,IC50,[5]; [19],1.1 µg/mL
same,CC50,[5],5.3 µg/mL
same,IC50,[6]; [20],0.18 µg/mL
same,IC50,[7]; [21],0.51 µg/mL
same,CC50,[7],2.8 µg/mL
"CC(C)=CCc1c2c(c(O)c3c1O[C@]14C(=C[C@@H]5CC1C(C)(C)O[C@]4(C/C=C(\C)C=O)C5=O)C3=O)C=CC(C)(C)O2 [Gh-2501, isomorellin]",IC50,[1]; [15],0.9 µg/mL
same,CC50,[1],3.1 µg/mL
same,CC50,in vitro,1.8 µg/mL
same,IC50,[2]; [16],1.3 µg/mL
same,CC50,[2],3.7 µg/mL
same,IC50,[3]; [17],1 µg/mL
same,CC50,[3],4 µg/mL
same,IC50,[4]; [18],2.1 µg/mL
same,CC50,[4],4 µg/mL
same,IC50,[5]; [19],2.2 µg/mL
same,CC50,[5],4.5 µg/mL
same,IC50,[6]; [20],0.26 µg/mL
same,IC50,[7]; [21],0.61 µg/mL
same,CC50,[7],2.1 µg/mL
"C=C(C)[C@@H]1CC[C@@]2(C)CC1c1c(O)c3c(c(CC=C(C)C)c1O2)O[C@]12C(=C[C@@H]4CC1C(C)(C)O[C@]2(C/C=C(/C)C(=O)O)C4=O)C3=O [Gh-2603-1, 2-butenoic acid, 2-methyl-4-[(1R,3aS,5S,9S,10R,13S,16aS)-3a,4,5,7,10,11,12,13-octahydro-8-hydroxy-3,3,13-trimethyl-15-(3-methyl-2-butenyl)-10-(1-methylethenyl)-7,18-dioxo-1,5:9,13-dimethano-1H,3H,9H-furo[3.4-g]oxocino[3.2-b]xanthen-1-yl]-,(2Z)-]",CC50,in vitro,1.7 µg/mL
same,IC50,[3]; [17],1 µg/mL
same,IC50,[5]; [19],1 µg/mL
"C=C(C)C1CC[C@]2(C)C[C@H]1c1c(O)c3c(c(CC=C(C)C)c1O2)O[C@]12C(=C[C@@H]4CC1C(C)(C)OC2(C/C=C(/C)C(=O)O)C4=O)C3=O (stereo partly drawn) [Gh-2603-2, gambogellic acid]",CC50,in vitro,1.7 µg/mL
same,IC50,[7]; [21],0.2 µg/mL
"CC(C)=CCc1c2c(c(O)c3c1O[C@]14C(=C[C@@H]5CC1C(C)(C)OC4(C/C=C(/C)C(=O)O)C5=O)C3=O)C=C[C@@](C)(CCC(O)C(C)(C)O)O2 (stereo partly drawn) [Gh-3261, 2-butenoic acid, 2-methyl-4-[(1R,3aS,5S,11R,14aS)-3a,4,5,7-tetrahydro-8-hydroxy-3,3,11-trimethyl-13-(3-methyl-2-butenyl)-11-(3,4-dihydroxy-4-methylpentyl)-7,15-dioxo-1,5-methano-1H,3H,11H-furo[3.4-g]pyrano[3.2-b]xanthen-1-yl]-,(2Z)-]",IC50,[1]; [8],0.11 µg/mL
same,IC50,[2]; [9],0.36 µg/mL
same,IC50,[3]; [10],1.9 µg/mL
same,IC50,[4]; [11],1.1 µg/mL
same,IC50,[5]; [12],1 µg/mL
same,IC50,[6]; [13],0.29 µg/mL
same,IC50,[7]; [14],0.19 µg/mL
"CC(C)=CCc1c2c(c(O)c3c1O[C@]14C(=C[C@@H]5CC1C(C)(C)OC4(C/C=C(/C)C(=O)O)C5=O)C3=O)C=C[C@](C)(CCC(O)C(C)(C)O)O2 (stereo partly drawn) [Gh-3271, 2-butenoic acid, 2-methyl-4-[(1R,3aS,5S,11S,14aS)-3a,4,5,7-tetrahydro-8-hydroxy-3,3,11-trimethyl-13-(3-methyl-2-butenyl)-11-(3,4-dihydroxy-4-methylpentyl)-7,15-dioxo-1,5-methano-1H,3H,11H-furo[3.4-g]pyrano[3.2-b]xanthen-1-yl]-,(2Z)-]",IC50,[1]; [8],0.11 µg/mL
same,IC50,[2]; [9],0.16 µg/mL
same,IC50,[3]; [10],3 µg/mL
same,IC50,[4]; [11],1.8 µg/mL
same,IC50,[5]; [12],0.46 µg/mL
same,IC50,[6]; [13],0.42 µg/mL
same,IC50,[7]; [14],0.25 µg/mL
"CC(C)=CCC[C@]1(C)C=Cc2c(O)c3c(c(CC4OC4(C)C)c2O1)O[C@]12C(=C[C@@H]4CC1C(C)(C)OC2(C/C=C(/C)C(=O)O)C4=O)C3=O (stereo partly drawn) [Gh-3352, 2-butenoic acid, 2-methyl-4-[(1R,3aS,5S,11R,14aS)-3a,4,5,7-tetrahydro-8-hydroxy-3,3,11-trimethyl-13-(2,3-epoxy-3-methylbutyl)-11-(4-methyl-3-pentenyl)-7,15-dioxo-1,5-methano-1H,3H,11H-furo[3.4-g]pyrano[3.2-b]xanthen-1-yl]-,(2Z)-]",LC50 (50% lethal concentration),[6],0.85 µg/mL
"CC(C)=CCC[C@]1(C)C=Cc2c(O)c3c(c(C(O)C4OC4(C)C)c2O1)O[C@]12C(=C[C@@H]4CC1C(C)(C)OC2(C/C=C(/C)C(=O)O)C4=O)C3=O (stereo partly drawn) [Gh-3353, 2-butenoic acid, 2-methyl-4-[(1R,3aS,5S,11R,14aS)-3a,4,5,7-tetrahydro-8-hydroxy-3,3,11-trimethyl-13-(1-hydroxy-2,3-epoxy-3-methylbutyl)-11-(4-methyl-3-pentenyl)-7,15-dioxo-1,5-methano-1H,3H,11H-furo[3.4-g]pyrano[3.2-b]xanthen-1-yl]-,(2Z)-]",LC50 (50% lethal concentration),[6],8.4 µg/mL
